What was measured:
[1] = system: A549 cell line; assay: Fluorescence in situ hybridization (FISH) of small RNA delivered by lipid; assay type: cell-based, human; conditions: reverse evaporation method; FIG. 12
Description: 3.3.3 Fluorescence In Situ Hybridization (FISH) of Small RNA
9) The culture plate was placed in a hybridization cassette in hybridization buffer (50% formamide, 5×SSC, 5× Denharts, 250 μg/mL yeast RNA, 500 μg/mL herring sperm DNA) and pre-incubated at room temperature for 1 hour.
10) Add RNA probes (HJT-sRNA-m7 probe: 5′-[…]-3′ (SEQ ID NO: 27), Scrambled probe: 5′-[…]-3′ (SEQ ID NO: 28), U6 probe: 5′-[…]-3′ (SEQ ID NO: 29)) to the hybridization buffer (the concentration of RNA probes was 0.1-0.2 ng/μ1), denature at 85° C. for 5 min, and quickly place it on ice. […]
(§1) Mixtures of soybean PC, lipid No. 11 (18:0/18:2) and lipid No. 12 (16:0/18:2), and various small RNA (see below Table 3) were prepared by the reverse evaporation method and then added into A549 cell line (the final concentration of sRNA was 200 nM); the negative control group (control) was directly added with the same concentration of sRNA; the positive control group (RNAimax) was transfected with Lipofectamine RNAimax (transfection reagent 6 μl/well). The abundance of sRNA in the cells was detected by Taqman probe after 3 hours, and the relative expression level of sRNA was calculated by 2-ΔCt method.

[2] = system: 3′UTRs of their target genes; assay: Luciferase with wild-type or mutated 3′UTR of target gene after lipid-mediated sRNA delivery; assay type: cell-based; conditions: FIG. 13
Source text: It can be used as a means for the delivery of nucleic acid drug.

[3] = system: A549 cell; assay: RT-qPCR detection of nucleic acid delivered by lipid into A549 cells; assay type: cell-based, human; conditions: various small RNA 200 nM; reverse evaporation method; 3 hours; compared with the control; FIG. 11A-C
Description: 3.1 NCI-N87 cell (gastric cancer cell), MRC-5 cell (lung fibroblast), A549 cell (lung cancer cell) were cultured to logarithmic growth phase, and then plated to a six-well plate at cell density of 1×10^6/2 mL medium/well; MRC-5 cell was cultured in Eagle's MEM medium (MEM, Gibco); A549 cell was cultured in Ham's F-12 medium (HyClone); NCI-N87 cell was cultured in RPMI-1640 medium (HyClone); followed by incubation overnight at 37° C., and the follow-up experiments were performed after the cells were attached to the walls.
4) Lipid nucleic acid mixture: the mixture of lipid and HJT-sRNA-m7 prepared from the step 2 were added into cells and mixed, and the final concentration of RNA was kept at 200 nM.
3.3 After co-incubation with the small RNA for 3 hours, the cells were washed 2-3 times with PBS. The cells were harvested with TRIzol lysis buffer, and the total RNA was extracted. The abundance of small RNA that entered cells was detected by RT-qPCR, and the localization of RNA was detected by fluorescence in situ hybridization; protocols of each detection method were as follows:
3.3.1 RT-qPCR Detection of Small RNA (Taqman Probe Method)
3.3.2 RT-qPCR Detection of Small RNA (SYBR Green Dye Method)
as §1
3.1.3 After co-incubation with cells for 12-24 hours, the cells were washed twice with PBS. The cells were harvested with TRIzol lysis buffer (purchased from Sigma-Aldrich), and total RNA was extracted. The abundance of HJT-sRNA-m7 that entered the cells was detected by RT-qPCR; the protocols were as follows:
4368813) was used to reverse transcribe sRNA to cDNA by stem-loop method (see, e.g. Real-time quantification of microRNAs by stem-loop RT-PCR, Nucleic Acids Res. 2005 Nov. 27; 33(20):e179, incorporated by reference herein).

[4] = In vivo delivery of lipid nucleic acid mixture by gavage (blood and lung); design: species or system C57 mice; conditions: gavage 200 μl/animal; 6 hours after gavage; FIG. 14
Description: 1. Preparation of lipid nucleic acid mixture: the mixture of lipid No. 11 or No. 12 with nucleic acid, and the mixture of the lipid combination of No. 1/2/4/9/14/18/19/20/21/22/23/24/25/26/27/28/29/30/32, No. 3/8/10/11/12/13, and No. 6/15/16/17/31 with nucleic acid were prepared by reverse evaporation and boiling method (refer to steps 2.1-2.2).
2. Gavage were performed on 6-8 weeks old male C57 mice: 200 μl/aminal, grouped as follows:
(1) Control group (free uptake group): no treatment or HJT-sRNA-m7 was given by gavage;
(2) Lipid No. 11 (18:0/18:2) group: lipid No. 11 (18:0/18:2) or a mixture of lipid No. 11 (18:0/18:2) and HJT-sRNA-m7 were given by gavage;
(3) Lipid No. 12 (16:0/18:2) group: lipid No. 12 (16:0/18:2) or a mixture of lipid No. 12 (16:0/18:2) and HJT-sRNA-m7 were given by gavage;
3. Sample collection: 6 hours after gavage, mouse whole blood (500 μl) and lung (110 mg) were collected by 1.5 mL TRIzol-LS or 3 mL TRIzol, respectively, homogenized and then frozen under −80° C. for storage.
4. […]

SMILES | localization of delivered nucleic acid (FISH) [1] | effect on the mutated 3′UTR of target genes (Luciferase) [2] | relative expression level of the Luciferase with the wild-type 3′UTR [2] | abundance of sRNA in the cells (Taqman probe) [3] | entry of HJT-sRNA-m7 into blood and lung (RT-qPCR) [4]
CCCCC/C=C\C/C=C\CCCCCCCC(=O)O[C@H](COC(=O)CCCCCCCCCCCCCCCCC)COP(=O)([O-])OCC[N+](C)(C)C [No. 11, trimethyl(2-{[(2R)-2-[(9Z,12Z)-octadeca-9,12-dienoyloxy]-3-(octadecanoyloxy)propylphosphonato]oxy}ethyl)azanium] | entered into cytoplasm and were primarily localized in cytoplasm | did not act on the mutated 3′UTR of their target genes | reduced the relative expression level of the Luciferase with the wild-type 3′UTR in the target gene | could effectively facilitate nucleic acid molecules of different sequences entry into various cells | could promote entry of small fragments of nucleic acids into the blood and lung
CCCCC/C=C\C/C=C\CCCCCCCC(=O)O[C@H](COC(=O)CCCCCCCCCCCCCCC)COP(=O)([O-])OCC[N+](C)(C)C [No. 12, (2-{[(2R)-3-(hexadecanoyloxy)-2-[(9Z,12Z)-octadeca-9,12-dienoyloxy]propylphosphonato]oxy}ethyl)trimethylazanium] | entered into cytoplasm and were primarily localized in cytoplasm | did not act on the mutated 3′UTR of their target genes | reduced the relative expression level of the Luciferase with the wild-type 3′UTR in the target gene | could effectively facilitate nucleic acid molecules of different sequences entry into various cells | could promote entry of small fragments of nucleic acids into the blood and lung

Reference: patent US20210108198A1, “APPLICATION OF COMPOUND OR TRADITIONAL CHINESE MEDICINE EXTRACT IN PREPARATION OF NUCLEIC ACID DELIVERY AGENT AND RELATED PRODUCTS THEREOF” (INSTITUTE OF BASIC MEDICAL SCIENCES CHINESE ACADEMY OF …, priority 2017, published 2021)
